Reference: patent US20220226349A1, “TOPICAL NEUROSTEROID FORMULATIONS” (Arizona Board of Regents on Behalf of the University of …, priority 2019, published 2022)
≈ marks a conversion by molar mass, not a printed value. Where two headings read alike, the source gives them in different places.

How the values were obtained:
[1] = tested on: TR 146 (human buccal) cell line; experiment: In vitro cell viability (resazurin assay) after treatment of Allo, TR 146; type: cell-based; conditions: TR 146, Allo 0.001-10 μM, 72 h
Experimental: (§1) Cell viability was evaluated in human skin (HaCaT)cell line by performing a resazurin assay after the treatment of Allo. Resazurin is a cell permeable redox indicator, and viable cells with active metabolism can reduce resazurin into resorufin, which is fluorescent (Riss et al., Cell Viability Assays, in Assay Guidance Manual, 2016). The HaCaT cells were grown in optimized Dubelco's Modified Eagle's medium (DMEM) (containing 2 mM of L-glutamine, 2 mM of sodium pyruvate, 4500 mg/L of glucose, and 1500 mg/L of sodium bicarbonate) supplemented with 10% fetal bovine serum (FBS). The TR 146 cells were grown in Ham's F12 medium supplemented with 10% FBS, 1% penicillin-streptomycin, and 0.2% L-Glutamine The RPMI 2650 cells were grown in Eagle's Minimum Essential medium (EMEM) supplemented with 10% FBS, 1% penicillin-streptomycin, and 0.2% amphotericin […]. Cells were plated in a 96-well plate at a density of 5,000 cells per each well (100 μl) and incubated at 37° C. and 5% CO2 for 48 h. Allo was prepared in cell culture media with the addition of 1% (v/v) ethanol to aid Allo solubility. The final concentration range of Allo treated to the cells was 0.001-10 μM. […] The cell viability was measured using Synergy H1 Multi-Mode Reader (BioTek Instruments Inc., Winooski, Vt.) at the excitation wavelength of 544 nm and emission wavelength of 590 nm.

[2] = tested on: RPMI 2650 (human nasal) cell line; experiment: In vitro cell viability (resazurin assay) after treatment of Allo, RPMI 2650; type: cell-based; conditions: RPMI 2650, Allo 0.001-10 μM, 72 h
Experimental: as §1

[3] = Saturated solubility of Allo in oils; type: physicochemical; conditions: oil or lipid, thermodynamic from solid, room temperature, mean ± SD, n=3
Experimental: The solubility of Allo was determined in CAPMUL® MCM EP/NF (monodiglyceride of medium chain fatty acids, commercially available from Abitec Corporation (Columbus, Ohio), CAS Number 91744-32-0, or 26402-22-2, and 26402-26-6), isopropyl myristate, and oleic acid, by adding an excess amount of Allo to 1 mL of each oil in a glass vial. The vial was rocked for 72 h at room temperature. The excessive amount of Allo was filtered through a syringe membrane filter (0.2 μm). The amount of Allo dissolved in each oil was determined using HPLC.
An HPLC analytical method was developed by employing the SHIMADZU LC2010A HT for in vitro and ex vivo evaluation of Allo from microemulsions (MEs). Chromatographic separation was achieved using a PHENOMENEX® KINETEX® Phenyl-hexyl 2.6 μm reverse-phase (150×4.6 mm) column. The mobile phase was a mixture of 0.1% acetic acid in water and methanol, 20:80 (v/v) and flowed at 0.4 ml/min for 15 min The injection volume was 10 μl and the UV detection wavelength was 206 nm. A standard curve was constructed at the concentration range of 7.8-1,000

[4] = tested on: HaCaT (human skin) cell line; experiment: In vitro cell viability (resazurin assay) after treatment of Allo, HaCaT; type: cell-based; conditions: 72 h
Experimental: as §1

[5] = Saturated solubility of Allo in receptor media; type: physicochemical; conditions: aqueous with cosolvent or surfactant or cyclodextrin, thermodynamic from solid, 32° C., n=3, read-out: Solubility of Allo in receptor medium
Experimental: To select a receptor medium placed in the receptor compartment of the Franz chamber, the saturated solubilities of Allo in various media were determined. PBS at pH 7.4 has been commonly used to mimic the physiological condition. […] An excessive amount of Allo was added to 1 ml of the following media: (1) 10% (w/v) 2-hydroxypropyl-β-cyclodextrin (HβCD), (2) 40% (v/v) isopropyl alcohol (IPA), (3) 30% (v/v) CREMOPHOR EL®, and (4) 20% (v/v) IPA and 25% (v/v) CREMOPHOR EL®. The solutions were kept under constant magnetic stirring at 600 rpm for 24 h and placed in an incubator at 32° C. After 24 h, the excessive amount of Allo was filtered through a 0.2 μm syringe membrane and the filtered solution was injected into the HPLC for analysis.

Question: Which results are given for CC(=O)[C@H]1CC[C@H]2[C@@H]3CC[C@H]4C[C@H](O)CC[C@]4(C)[C@H]3CC[C@]12C [Allo, 3α-hydroxy-5α-pregnan-20-one]?
Answer: Viability percent range [1]: 93.89-112.44%; Viability percent range [2]: 107.32-113.60%; solubility at 72 h ([3]; in CAPMUL® MCM): 28.4 ± 1.92 mg/mL (≈ 89 mM); solubility at 72 h ([3]; in isopropyl myristate): 8.88 ± 0.17 mg/mL (≈ 27.9 mM); solubility at 72 h ([3]; in oleic acid): 17.8 ± 3.97 mg/mL (≈ 55.9 mM); Viability percent range ([4]; HaCaT, Allo 0.001-10 μM): 84.16-102.70%; Viability compared to the control group ([4]; stated for the tested cell lines (HaCaT, TR 146, RPMI 2650), control without Allo): No significant decrease in viability; solubility at 24 h ([5]; PBS (pH 7.4) containing 10% (w/v) HβCD): 3.45 ± 0.03 mg/mL (≈ 10.8 mM); solubility at 24 h ([5]; PBS (pH 7.4) containing 20% (v/v) IPA and 25% (v/v) CREMOPHOR EL®): 3.35 ± 0.12 mg/mL (≈ 10.5 mM); solubility at 24 h ([5]; PBS (pH 7.4) containing 30% (v/v) CREMOPHOR EL®): 1.99 ± 0.17 mg/mL (≈ 6.25 mM); solubility at 24 h ([5]; PBS (pH 7.4) containing 40% (v/v) IPA): 1.13 ± 0.13 mg/mL (≈ 3.55 mM)
